Assays:
Format in all cases: in vivo, mouse
[1] = system: Fmr1 KO1 transgenic mice in an FVB background; assay: Audiogenic seizures (AGS), Fmr1 KO1 mice in FVB background; details: for Incidence / Respiratory arrest / Seizure / Wild running: audio stimulus 60 seconds at 124 db
Experimental: 4. Audiogenic Seizures (AGS) are reflex seizures generated by loud noises in genetically predisposed mice. The Fmr1 KO1 mice display audiogenic seizures depending on age and background strain, the Fmr1 KO1 mouse on the FVB background is characterized by an increased AGS susceptibility at all ages and is considered a good animal model for epilepsy. The effect of (S)-3-amino-4-(difluoromethylenyl) cyclopent-1-ene-1-carboxylic acid was tested on AGS Fmr1 KO1 transgenic mice in an FVB background. Observable criteria are: 1. normal behavior, 2. wild running, 3. seizure, and 4. respiratory arrest.
(S)-3-amino-4-(difluoromethylenyl) cyclopent-1-ene-1-carboxylic acid was administered to Fmr1 KO1 mice, males, age 2 months in the following amounts: 0.01 mg/kg, 0.05 mg/kg, and 0.1 mg/kg. Positive controls were administered 2-Methyl-6-(phenylethynyl)pyridine (MPEP), a mGluR5 antagonist, 30 mg/kg by i.p. and tested 20 minutes after injection. Audio stimulus was administered continuously for 60 seconds at 124 db.

Fmr1 KO1 mice [2] = assay: Open field repetitive behavior: counter revolutions (CCW), Fmr1 KO1 mice
Source text: (§1) Mutant fmr1 knockout (KO) mice recapitulate the Fragile X syndrome (FXS) phenotype and represent a preclinical model for assessment of putative drug treatments. In this study three different mice models of FXS were used: Fmr1 KO1 is the original Fmr1 knockout animal that carries an insertion in exon 5. See, e.g., Bakker C E, et al., The Dutch-Belgian Fragile X Consortium, Fmr1 knockout mice: A model to study fragile X mental retardation. Cell. 1994; 78:23-33 It is a protein null, although Fmr1 mRNA is still present. It is backcrossed to the C57/B16 strain. Subsequently, these mice were bred into different background strains, such as the FVB inbred mouse strain. Fmr1 KO2 is a null allele at Fmr1 generated by deletion of the promoter and first exon of Fmr1. See, Mientjes, E J et al., The generation of a conditional Fmr1 knock out mouse model to study Fmrp function in vivo. Neurobiology of Disease (2006) 21(3): 549-555. It is both protein and mRNA null. Backcrossed to the C57/B16 strain. Genotyping was accomplished using TransnetXY Automated Genotyping (http://www.transnetyx.com/). TRANSNETYX, INC., 8110 Cordova Rd. Suite 119, Cordova, TN 38016, USA.
(§2) The mice were housed in plastic cages (35×30×12 cm), 5 in each and habituated to the animal facilities for at least a week before test. The room temperature (21±2° C.), relative humidity (55±5%), a 12-h light-dark cycle (lights on 7 a.m.-7 p.m.) and air exchange (16 times per h) were automatically controlled. The animals had free access to commercial food pellets and water. Testing was conducted during the light phase. Testing was conducted on Fmr1 knockout mice and their wild-type (WT) littermates. Ten mice per treatment group, 14 weeks of age, were used for behavioral experiments. Experiments were conducted in line with the requirements of the UK Animals (Scientific Procedures) Act, 1986.
(§3) Oral dosing was performed by using 1.5-in. curved, 20-gauge, stainless steel feeding needles with a 2.25-mm ball (Braintree Scientific, Braintree, MA). Each gavage treatment was given in 0.5% methyl cellulose (Methyl Cellulose M0512, Sigma-Aldrich, St Louis, MO) used as vehicle with or without treatment compounds. The same veterinarian, blinded to the treatment groups, performed the procedure, and documented animal reactions to oral gavage. Reactions considered to indicate stress were defined as excessive struggling during gavage or abnormal behavior after gavage (labored breathing, frozen stance, exaggerated jumping, shuddering, and hunched posture).
(§4) For experiments all mice were tested once in the same apparatus. Prior to testing, mice not in the study were placed in the apparatus for some minutes before the experiment. The apparatus was then cleaned with moist and dry tissues before testing each mouse. The aim was to create a low but constant background mouse odor for all experimental subjects. All experiments were conducted with the experimenters blind to genotype and drug treatment during all testing and data analysis. Separate investigators prepared and coded dosing solutions, allocated the mice to the study treatment groups, dosed the animals, and collected the behavioral data. Data were analyzed by one-way analysis of variance (ANOVA) followed by post-hoc comparisons where appropriate using Tukey's Multiple Comparison Test. Data are represented as the mean and standard error of the mean (SEM).
2. Open Field Repetitive Behaviors (RB) (stereotypies: anticlockwise circling and self grooming). Fmr1 KO1 mice display the autism-like phenotypes of repetitive behaviors like counter revolutions (CCW), self grooming and stereotypy that typically involves behaviors such as head bobbing. […]

Fmr1 KO1 mice [3] = assay: Open field hyperactivity (locomotor activity), Fmr1 KO1 mice
Source text: as §1, §2, §3, §4
1. […]

Fmr1 KO2 mice = assay: Open field hyperactivity (locomotor activity), Fmr1 KO2 mice
Source text: as §1, §2, §3, §4
1. […]

N[C@H]1C=C(C(=O)O)CC1=C(F)F [Compound, (S)-3-Amino-4-(difluoromethylenyl)cyclopent-1-ene-1-carboxylic acid]
Incidence ([1]; 0.01 mg/kg): 100% | Respiratory arrest ([1]; 0.01 mg/kg): 7/10 | Seizure ([1]; 0.01 mg/kg): 10/10 | Wild running ([1]; 0.01 mg/kg): 10/10 | Incidence ([1]; 0.05 mg/kg): 100% | Respiratory arrest ([1]; 0.05 mg/kg): 5/10 | Seizure ([1]; 0.05 mg/kg): 8/10 | Wild running ([1]; 0.05 mg/kg): 10/10 | Audiogenic seizure susceptibility reduced to ([1]; 0.1 mg/Kg, Fmr1 KO1 mice (FVB background)): 40% | Incidence ([1]; 0.1 mg/kg): 40% | Respiratory arrest ([1]; 0.1 mg/kg): 4/10 | Seizure ([1]; 0.1 mg/kg): 5/10 | Wild running ([1]; 0.1 mg/kg): 4/10 | Open field counter revolutions (CCW), WT-Veh vs. KO1-Compound: Significant? (Fmr1 KO1 mice [2]; 0.01 mg/Kg PO QD seven days): Yes | Open field counter revolutions (CCW), WT-Veh vs. KO1-Compound: Significant? (Fmr1 KO1 mice [2]; 0.05 mg/Kg PO QD seven days): No | Open field counter revolutions (CCW), WT-Veh vs. KO1-Compound: Summary (Fmr1 KO1 mice [2]; 0.05 mg/Kg PO QD seven days): ns | Open field counter revolutions (CCW), WT-Veh vs. KO1-Compound: Significant? (Fmr1 KO1 mice [2]; 0.1 mg/Kg PO QD seven days): No | Open field counter revolutions (CCW), WT-Veh vs. KO1-Compound: Summary (Fmr1 KO1 mice [2]; 0.1 mg/Kg PO QD seven days): ns | Effect on CCW repetitive behavior (FIG. 8) (Fmr1 KO1 mice [2]; 0.05 and 0.1 mg/Kg): reversed CCW repetitive behavior | Open field (hyperactivity, total distance traveled), WT-Veh vs. KO1-Compound: Significant? (Fmr1 KO1 mice [3]; 0.01 mg/Kg PO QD seven days): Yes | Open field (hyperactivity, total distance traveled), WT-Veh vs. KO1-Compound: Significant? (Fmr1 KO1 mice [3]; 0.05 mg/Kg PO QD seven days): Yes | Open field (hyperactivity, total distance traveled), WT-Veh vs. KO1-Compound: Significant? (Fmr1 KO1 mice [3]; 0.1 mg/Kg PO QD seven days): No | Open field (hyperactivity, total distance traveled), WT-Veh vs. KO1-Compound: Summary (Fmr1 KO1 mice [3]; 0.1 mg/Kg PO QD seven days): ns | Open field locomotor activity (total distance traveled), WT-Veh vs. KO2-Compound: Significant? (Fmr1 KO2 mice; 0.01 mg/Kg PO QD seven days): Yes | Open field locomotor activity (total distance traveled), WT-Veh vs. KO2-Compound: Significant? (Fmr1 KO2 mice; 0.05 mg/Kg PO QD seven days): Yes | Open field locomotor activity (total distance traveled), WT-Veh vs. KO2-Compound: Significant? (Fmr1 KO2 mice; 0.1 mg/Kg PO QD seven days): No | Open field locomotor activity (total distance traveled), WT-Veh vs. KO2-Compound: Summary (Fmr1 KO2 mice; 0.1 mg/Kg PO QD seven days): ns

Source: patent US12285397B2, “Use of (s)-3-amino-4-(difluoromethylenyl) cyclopent-1-ene-1-carboxylic acid and related compounds, (1S,3S)-3-amino-4-(difluoromethylidene) cyclopentane-1-carboxylic acid and vigabatrin in the treatment of developmental disorders” (Ovid Therapeutics Inc., priority 2018, dated 2025)
